Measured values published in patent US20250179057A1, “MEK IMMUNE ONCOLOGY INHIBITORS AND THERAPEUTIC USES THEREOF” (Immuneering Corporation, priority 2022, published 2025).

Experiments:
[1] = tested on: phospho-MEK in SK-MEL-2 cells; test: pMEK/tMEK ratio in SK-MEL-2 melanoma model; assay type: cell-based; conditions: SK-MEL-2 (NRAS p.Q61R); 100 nM
Method: (§1) Compound (drug) treatment: Cells were plated in a 6-well plate at a density of 250,000-300,000 cells/well in 3 mL media and incubated 37° C. in a humidified, 5% CO2 incubator. […] These solutions were added to the cells (3 uL/well), mixed by swirling the plate, and incubated at 37° C. in a humidified, 5% CO2 incubator for 2 hours.
(§2) Cell lysis and protein estimation: Cells were washed with PBS, and scraped in 50 μL of lysis buffer containing protease and phosphatase inhibitors. Cell lysates were stored at −20° C. Cell lysates were thawed and spun at 12,000 rpm for one minute, 3 ul of the supernatant was added to 500 μL of Coomassie blue reagent following by 500 μL of water. […] Protein standards were used (0-20 mg/mL) to calculate protein concentrations of test samples.
(§3) All samples were heated at 95° C. for 5 minutes, cooled to room temperature and spun down. […] After the run, gel was removed and protein transfer was done using iBlot for 7 minutes, as per manufacturer's recommendations. After the transfer, nitrocellulose membrane was incubated on a shaker in 5 mL of blocking buffer at room temperature for 1 hr. The blot was then incubated overnight on a shaker in 5 ml of blocking buffer containing 0.2% Tween-20 and primary antibody, at room temperature. Anti-phospho-STAT3 antibody was used at a dilution of 1:500, the other 3 primary antibodies were used at a dilution of 1:1000.
(§4) Next day, the blot was washed 3 times for 10 min each with 10 mL of TBST followed by incubation on a shaker in 5 ml of blocking buffer containing 0.2% Tween-20 and 0.5 ul of the IRDye labeled secondary antibodies, diluted 1:10000, at room temperature for 1 hr. The blot was then washed 3 times for 10 min each with 10 mL of TBST and dried between sheets of paper towels. Imaging was done using LICOR's Odyssey imaging system, quantitation was done using their software, Image Studio version 3.1.
(§5) The nine models are described in Table 16.

[2] = tested on: phospho-ERK in MM127 cells; test: pERK/tERK ratio in MM127 melanoma model; assay type: cell-based; conditions: MM127 (NRAS p.G13R, BRAF p.G464E); 100 nM
Method: as §1, §2, §3, §4, §5

[3] = tested on: phospho-ERK in SK-MEL-30 cells; test: pERK/tERK ratio in SK-MEL-30 melanoma model; assay type: cell-based; conditions: SK-MEL-30 (NRAS p.Q61K); 100 nM
Method: as §1, §2, §3, §4, §5

[4] = tested on: phospho-ERK in SK-MEL-2 cells; test: pERK/tERK ratio in SK-MEL-2 melanoma model; assay type: cell-based; conditions: SK-MEL-2 (NRAS p.Q61R); 100 nM
Method: as §1, §2, §3, §4, §5

[5] = tested on: phospho-ERK in SK-MEL-28 cells; test: pERK/tERK ratio in SK-MEL-28 melanoma model; assay type: cell-based; conditions: SK-MEL-28 (BRAF p.V600E); 100 nM
Method: as §1, §2, §3, §4, §5

[6] = tested on: phospho-MEK in MeWo cells; test: pMEK/tMEK ratio in MeWo melanoma model; assay type: cell-based; conditions: MeWo (NF1 LoF); 100 nM
Method: as §1, §2, §3, §4, §5

[7] = tested on: phospho-MEK in Hs852.T cells; test: pMEK/tMEK ratio in Hs852.T melanoma model; assay type: cell-based; conditions: Hs852.T (NRAS p.G12V); 100 nM
Method: as §1, §2, §3, §4, §5

[8] = tested on: phospho-ERK in Hs852.T cells; test: pERK/tERK ratio in Hs852.T melanoma model; assay type: cell-based; conditions: Hs852.T (NRAS p.G12V); 100 nM
Method: as §1, §2, §3, §4, §5

[9] = tested on: phospho-ERK in MM415 cells; test: pERK/tERK ratio in MM415 melanoma model; assay type: cell-based; conditions: MM415 (NRAS p.Q61L); 100 nM
Method: as §1, §2, §3, §4, §5

[10] = tested on: phospho-ERK in MeWo cells; test: pERK/tERK ratio in MeWo melanoma model; assay type: cell-based; conditions: MeWo (NF1 LoF); 100 nM
Method: as §1, §2, §3, §4, §5

[11] = tested on: phospho-MEK in MM127 cells; test: pMEK/tMEK ratio in MM127 melanoma model; assay type: cell-based; conditions: MM127 (NRAS p.G13R, BRAF p.G464E); 100 nM
Method: as §1, §2, §3, §4, §5

[12] = Liver microsome stability (% remaining at 1 hour), human; assay type: in vitro ADME; conditions: 2 μM
Method: (§6) Materials and Methods: Individual stock solutions of Test Articles (TA) were prepared at 30 mM in DMSO and were further diluted to 2 mM in DMSO. […] Prior to use in the assay, the 2 mM stock solutions were diluted 10-fold with acetonitrile. The acetonitrile diluted stocks were diluted 1:50 into warm (37° C.) 0.1 M potassium phosphate, pH 7.4, containing 2.0 mM NADPH (2× final assay concentration). Frozen liver microsomes were quick thawed in a 37° C. water bath and then placed on ice. […] The plate was incubated with gentle shaking at 37° C. Duplicate 30 μL aliquots were removed immediately after compound addition (To: time zero) and at 60 minutes. […] The quenched samples were gently mixed and were stored in a −20° C. freezer for at least 30 minutes. […]
(§7) Data Collection and Calculations: Analyst (AB Sciex) and Acquity (Waters) were used for data acquisition. Results were calculated using Microsoft Excel.
(§8) Peak area ratios for IS-normalized test article counts were used to calculate the percent remaining relative to the time zero (T0) value. As appropriate, results were plotted and further analyzed to calculate half-life (T1/2) and CLint values. […]
(§9) Results were plotted [ln (% remaining) vs. incubation time] and further analyzed to calculate half-life (T1/2) values: […]

[13] = Liver microsome stability (% remaining at 1 hour), CD-1 mouse; assay type: in vitro ADME; conditions: 2 μM
Method: as §6, §7, §8, §9

[14] = PubChem Compound Summary; cited from earlier work

Row | Structure (SMILES) | pMEK/tMEK ratio normalized to DMSO [1] | pERK/tERK ratio normalized to DMSO [2] | pERK/tERK ratio normalized to DMSO [3] | pERK/tERK ratio normalized to DMSO [4] | pERK/tERK ratio normalized to DMSO [5] | pMEK/tMEK ratio normalized to DMSO [6] | pMEK/tMEK ratio normalized to DMSO [7] | pERK/tERK ratio normalized to DMSO [8] | pERK/tERK ratio normalized to DMSO [9] | pERK/tERK ratio normalized to DMSO [10] | pMEK/tMEK ratio normalized to DMSO [11] | A-B Permeability Ranking (Caco-2 cells) | Human (% Reamining @1 hour) ([12]; human, 1 h, pH 7.4) | CD-1 Mouse (% Reamining @1 hour) ([13]; CD-1, mouse, 1 h, pH 7.4) | Human (% Reamining @1 hour) ([12]; liver microsomes, 1 hour) | CD-1 Mouse (% Reamining @1 hour) ([13]; liver microsomes, 1 hour) | human plasma drug half-life [14]
1 | CNS(=O)(=O)Nc1cccc(Cc2c(CN(C)C)c3ccc(OC(=O)N(C)C)cc3oc2=O)c1Cl [Compound 274, 3-(2-chloro-3-((N-methylsulfamoyl)amino)benzyl)-4-((dimethylamino)methyl)-2-oxo-2H-chromen-7-yl dimethylcarbamate] | 0.518 | 0.533 | 0.521 | 0.439 | 0.745 | 0.904 | 0.672 | 0.731 | 0.423 | 0.519 | 0.773 |  |  |  |  |  | 
2 | CNS(=O)(=O)Nc1nccc(Cc2c(C)c3ccc(Oc4ncccn4)cc3oc2=O)c1F [Reference-2, reference compound] |  |  |  |  |  |  |  |  |  |  |  | High | 107.1% | 96.0% |  |  | 
3 | Cn1cnc2c(F)c(Nc3ccc(Br)cc3Cl)c(C(=O)NOCCO)cc21 [Reference-1, Selumetinib] | 2.055 | 0.255 | 0.163 | 0.191 | 0.152 | 5.483 | 4.945 | 0.293 | 0.114 | 0.196 | 2.341 | High |  |  | 75.8% | 13.9% | ≥ 6.2 h
